Experimental data: publication PMC8795197, “Safety and activity of WX-0593 (Iruplinalkib) in patients with ALK- or ROS1-rearranged advanced non-small cell lung cancer: a phase 1 dose-escalation and dose-expansion trial” (Signal Transduction and Targeted Therapy, 2022)
Entries after “also recorded” stand apart in the source; their conditions may differ.

Test system: advanced NSCLC patients with ALK or ROS1 rearrangement
Assay: Phase 1 dose-expansion phase: antitumor activity (RECIST 1.1, investigators)
Assay type: in vivo, human
Details: for intracranial objective response rate: Baseline measurable CNS metastasis; for DOR, median (95% CI) / PFS, median (95% CI) / TTP, median (95% CI) / DCR (95% CI) / ORR (95% CI) / PFS, number of events (%): ALK-positive patients
Excerpt: Patients continued treatment until documented disease progression, unacceptable toxicity, withdrawal of consent, the start of a new anticancer treatment, death, loss of follow-up, or end of the study (whichever occurred first). Patients were permitted to continue treatment after progression if they were still experiencing clinical benefit, at the discretion of the investigator. Patients performed imaging evaluation at baseline, with computed tomography or magnetic resonance imaging of the chest, abdomen, pelvis, and brain. In the dose-escalation phase, the first efficacy evaluation was done after 3-week continuous administration of WX-0593 and every 6 weeks thereafter. […] AEs were assessed in all patients throughout this study and graded per the National Cancer Institute Common Terminology Criteria for Adverse Events version 4.03. In the dose-expansion phase, the primary endpoint was ORR assessed by investigators. Other key secondary endpoints included PFS, DCR, time to progression (TTP), DOR, intracranial response, and safety. Additionally, overall survival (OS) was assessed as a prespecified exploratory endpoint. ORR was defined as the proportion of patients who had best overall response, including CR or PR. PFS was calculated from the date of the first dose of WX-0593 to the date of documented disease progression or death (whichever occurred first). DCR was defined as the proportion of patients who had best overall response, including CR, PR, or SD, with a duration of at least 12 weeks. TTP was calculated from the date when the first dose of WX-0593 was given to first documented disease progression. […] OS was calculated from the date when the first dose of WX-0593 was administered to the date of death from any cause. Safety analysis was performed in the SS, which was comprised of all patients treated with one dose of WX-0593 and with safety data recorded. Efficacy analysis was performed in the FAS, which was defined as all patients treated with at least one dose of WX-0593. The PK analysis set included all patients treated with at least one dose of WX-0593 and with at least one evaluable PK sample. […] Descriptive statistics were carried out to summarize patients’ baseline characteristics and safety. […] All time-to-event data (PFS, TTP, DOR, and OS) and their corresponding 95% CIs were estimated by Kaplan–Meier methods. PK parameter analyses were done with Phoenix WinNonlin version 8.0. All other statistical analyses were conducted using SAS version 9.4.

[1] = ALK-rearranged, crizotinib as the only ALK TKI

In the case of `COc1cc(N2CCC3(CCN(C)CC3)CC2)ccc1Nc1ncc(Cl)c(Nc2ccccc2P(C)(C)=O)n1` [WX-0593], the objective response rate (120mg, ALK-rearranged patients) is reported as 53.2% (25/47, 38.1-67.9%), the objective response rate (120mg, ALK-rearranged patients, ALK TKI naive) is reported as 76.5% (13/17, 50.1-93.2%) and the objective response rate (120mg, ALK-rearranged patients, ALK TKI naive, chemotherapy naïve) is reported as 75.0%(6/8, 34.9-96.8%). The objective response rate (120mg, ALK-rearranged patients, ALK TKI naive, received chemotherapy before) was 77.8% (7/9, 40.0-97.2%), the objective response rate (120mg, ALK-rearranged patients, Crizotinib and other ALK TKIs) was 0 (0/2, 0-84.2%) and the objective response rate (120mg, ALK-rearranged patients, Crizotinib only) was 44.4% (12/27, 25.5-64.7%). The objective response rate (120mg, ALK-rearranged patients, Other ALK TKIs) was 0 (0/1, 0-97.5%), the objective response rate (120mg, Baseline CNS metastasis) was 22.9% (8/35, 10.4-40.1%) and the objective response rate (120mg, Baseline CNS metastasis, ALK TKI naive) was 23.1% (3/13, 5.0-53.8%). For the same compound, the objective response rate (120mg, Baseline CNS metastasis, Crizotinib only) was 25.0% (5/20, 8.7-49.1%), the objective response rate (120mg, Baseline CNS metastasis, Radiotherapy before) was 16.7% (2/12, 2.1-48.4%) and the objective response rate (120mg, Baseline CNS metastasis, Radiotherapy naïve) was 26.1% (6/23, 10.2-48.4%). For the same compound, the “intracranial objective response rate” value (120mg) was 45.5% (2/11, 16.7-76.6%), the “intracranial objective response rate” value (120mg, ALK TKI naive) was 33.3% (1/3, 0.8-90.6%) and the “intracranial objective response rate” value (120mg, Crizotinib only) was 50.0% (4/8, 15.7-84.3%). For the same compound, the “intracranial objective response rate” value (120mg, Radiotherapy before) was 28.6% (2/7, 3.7-71.0%), the “intracranial objective response rate” value (120mg, Radiotherapy naïve) was 75.0% (3/4, 19.4-99.4%) and the objective response rate (120mg, Prior ALK TKI treatment: Crizotinib and other ALK TKI) was 0 (0/2, 0-84.2%). For the same compound, the objective response rate (120mg, Prior ALK TKI treatment: Crizotinib only) was 41.4% (12/29, 23.5-61.1%), the objective response rate (120mg, ROS1-rearranged patients) was 0 (0/3, 0-70.8%) and the objective response rate (120mg, ROS1-rearranged patients, Crizotinib naive) was 0 (0/1, 0-97.5%). The objective response rate (120mg, ROS1-rearranged patients, Received Crizotinib before) was 0 (0/2, 0-84.2%), the objective response rate (120mg, dose expansion phase, Prior ALK TKI treatment: ALK TKI naive) was 72.2% (13/18, 46.5-90.3%) and the objective response rate (180mg, ALK-rearranged patients) was 63.6% (28/44, 47.8-77.6%). The objective response rate (180mg, ALK-rearranged patients, ALK TKI naive) was 76.2% (16/21, 52.8-91.8%), the objective response rate (180mg, ALK-rearranged patients, ALK TKI naive, chemotherapy naïve) was 91.7% (11/12, 61.5-99.8%) and the objective response rate (180mg, ALK-rearranged patients, ALK TKI naive, received chemotherapy before) was 55.6% (5/9, 21.2-86.3%). For the same compound, the objective response rate (180mg, ALK-rearranged patients, Crizotinib and other ALK TKIs) was 66.7% (2/3, 9.4-99.2%), the objective response rate (180mg, ALK-rearranged patients, Crizotinib only) was 47.4% (9/19, 24.4-71.1%) and the objective response rate (180mg, ALK-rearranged patients, Other ALK TKIs) was 100% (1/1, 2.5-100.0%). For the same compound, the objective response rate (180mg, Baseline CNS metastasis, ALK TKI naive) was 28.6% (2/7, 3.7-71.0%), the objective response rate (180mg, Baseline CNS metastasis, Crizotinib only) was 15.4% (2/13, 1.9-45.4%) and the objective response rate (180mg, Baseline CNS metastasis, Radiotherapy before) was 0 (0/7, 0-41.0%). The objective response rate (180mg, Baseline CNS metastasis, Radiotherapy naïve) was 31.3% (5/16, 11.0-58.7%), the “intracranial objective response rate” value (180mg) was 50.0% (2/4, 6.8-93.2%) and the “intracranial objective response rate” value (180mg, ALK TKI naive) was 100% (1/1, 2.5-100%). For the same compound, the “intracranial objective response rate” value (180mg, Crizotinib only) was 50.0% (1/2, 1.3-98.7%), the “intracranial objective response rate” value (180mg, Radiotherapy naïve) was 31.3% (5/16, 11.0-58.7%) and the objective response rate (180mg, Prior ALK TKI treatment: Crizotinib and other ALK TKI) was 66.7% (2/3, 9.4-99.2%). For the same compound, the objective response rate (180mg, Prior ALK TKI treatment: Crizotinib only) was 42.9% (9/21, 21.8-66.0%), the objective response rate (180mg, ROS1-rearranged patients) was 66.7% (4/6, 22.3-95.7%) and the objective response rate (180mg, ROS1-rearranged patients, Crizotinib naive) was 100% (4/4, 39.8-100%). The objective response rate (180mg, ROS1-rearranged patients, Received Crizotinib before) was 0 (0/2, 0-84.2%), the objective response rate (180mg, dose expansion phase, Prior ALK TKI treatment: ALK TKI naive) was 79.2% (19/24, 57.8-92.9%) and the DCR (ALK TKI naive) was 92.9%. The ORR (ALK TKI naive) was 76.2%, the “median PFS” value (ALK TKI naive) was “not reached” and the “DOR, median (95% CI)” value (120 mg) was “NR (5.52, NR)”. For the same compound, the “PFS, median (95% CI)” value (120 mg) was “NR (6.87, NR)”, the “TTP, median (95% CI)” value (120 mg) was “NR (6.87, NR)” and the “DCR (95% CI)” value (120 mg (n=47)) was 83.0% (69.2%, 92.4%). For the same compound, the “ORR (95% CI)” value (120 mg (n=47)) was 53.2% (38.1%, 67.9%), the “PFS, number of events (%)” value (120 mg (n=47)) was 12 (25.5%) and the “DOR, median (95% CI)” value (180 mg) was “NR (5.49, NR)”. For the same compound, the “PFS, median (95% CI)” value (180 mg) was “NR (NR, NR)”, the “TTP, median (95% CI)” value (180 mg) was “NR (NR, NR)” and the “DCR (95% CI)” value (180 mg (n=44)) was 88.6% (75.4%, 96.2%). For the same compound, the “ORR (95% CI)” value (180 mg (n=44)) was 63.6% (47.8%, 77.6%), the “PFS, number of events (%)” value (180 mg (n=44)) was 8 (18.2%) and the “DOR, median (95% CI)” value (total) was “NR (5.65, NR)”. For the same compound, the “PFS, median (95% CI)” value (total) was “not reached (95% CI 6.93 months to NR); also recorded: NR (6.93, NR)”, the “TTP, median (95% CI)” value (total) was “NR (6.93, NR)” and the “PFS, number of events (%)” value (total (n=91)) was 20 (22.0%). The “patients who achieved SD” value (ALK-rearranged patients (n = 91)) was “Twenty-five”, the ORR (ALK-rearranged, ALK TKI naive) was 76.3% and the ORR (ALK-rearranged, ALK TKI naive, chemotherapy-naive) was 85.0%. For the same compound, the ORR (ALK-rearranged, ALK TKI naive, received chemotherapy) was 66.7%, the ORR [1] was 45.7% and the “median PFS” value [1] was 6.9 months. For the same compound, the “patients who achieved PR, n (%)” value (FAS n = 99) was 56 (56.6%), the “patients with progressive disease, n (%)” value (FAS n = 99) was 8 (8.1%) and the “patients with stable disease (SD), n (%)” value (FAS n = 99) was 27 (27.3%).
